Source: patent publication US5011947A, “Antihypercholesterolemic alkylene compounds” (Bristol-Myers, priority 1990, dated 1991)
Where a name gives a salt, the structure may show the parent alone.

Key:
[1] = biological target: T1, rat liver HMG-CoA reductase (Rattus norvegicus, UniProt P51639); test: Test A: In Vitro Inhibition of Microsomal HMG-CoA Reductase; type: biochemical; details: intact, fully activated microsomal form of rat liver enzyme; [3-14C]-HMG-CoA 0.33 mM; NADPH 3.0 mM; pH 7.2; at least 4 dilutions in duplicate
T1 construct: from tissue; host or cells: rat liver microsomes
T1 sequence (P51639 1-887): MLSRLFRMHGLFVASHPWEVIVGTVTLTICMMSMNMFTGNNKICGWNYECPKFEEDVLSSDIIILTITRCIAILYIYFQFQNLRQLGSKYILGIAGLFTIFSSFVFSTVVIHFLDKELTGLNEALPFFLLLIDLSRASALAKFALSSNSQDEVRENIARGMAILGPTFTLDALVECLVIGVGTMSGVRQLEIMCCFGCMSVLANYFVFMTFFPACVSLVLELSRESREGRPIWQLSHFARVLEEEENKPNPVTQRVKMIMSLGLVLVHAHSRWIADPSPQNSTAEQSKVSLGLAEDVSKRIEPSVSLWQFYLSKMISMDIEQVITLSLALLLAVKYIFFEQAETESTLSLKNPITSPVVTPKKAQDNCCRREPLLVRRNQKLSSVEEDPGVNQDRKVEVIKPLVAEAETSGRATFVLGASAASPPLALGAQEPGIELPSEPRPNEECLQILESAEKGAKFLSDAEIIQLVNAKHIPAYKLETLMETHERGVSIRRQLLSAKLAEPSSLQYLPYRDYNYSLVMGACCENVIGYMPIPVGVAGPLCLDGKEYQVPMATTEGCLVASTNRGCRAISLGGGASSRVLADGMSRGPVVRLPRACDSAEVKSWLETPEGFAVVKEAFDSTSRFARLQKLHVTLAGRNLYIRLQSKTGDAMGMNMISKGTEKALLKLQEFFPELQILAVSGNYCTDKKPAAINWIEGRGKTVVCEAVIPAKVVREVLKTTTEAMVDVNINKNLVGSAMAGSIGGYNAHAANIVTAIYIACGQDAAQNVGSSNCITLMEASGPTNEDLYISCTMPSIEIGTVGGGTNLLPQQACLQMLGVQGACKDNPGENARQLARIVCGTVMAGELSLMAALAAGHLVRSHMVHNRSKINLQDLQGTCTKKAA
Procedure: Test A: In Vitro Inhibition of Microsomal HMG-CoA Reductase:
The intact, fully activated microsomal form of rat liver HMG-CoA reductase (subunit MW ca 100,000 daltons) was prepared as described by Parker, et al., Biochem. Biophys. Res. Commun., 125, 629-635 (1984), and used as the source of enzyme for assays. HMG-CoA reductase activity was determined essentially by the method of Shapiro, et al., Biochem. Biophys. Acta., 370. 369-377 (1974), with modifications as described by Ingebritsen and Gibson, Meth. Enzymol. 71. 486-497 (1981) with the exception that the internal standard ^3 H-mevalonolactone is added after termination of the assay. In this procedure, the enzyme is assayed by measuring the formation of product, ^14 C-mevalonate, from the substrate, [3-^14 C]-HMG-CoA, in the presence of NADPH. The ^14 C-mevalonate is converted to its lactone and isolated by silica thin-layer chromatography (Whatman LK5D, developed in 50:50 benzene:acetone) in the presence of ^3 H-mevalonolactone as an internal standard. Assays were conducted under conditions in which product formation was linear with respect to time and enzyme concentration.
To measure reductase inhibition, test compounds dissolved in water or dimethylsulfoxide and diluted in buffer A (50 mM imidazole-HCl, 250 mM NaCl, 1 mM EDTA, 1 mM EGTA, 5 mM DTT, 20 μM leupeptin, pH =7.2) were incubated with aliquots of microsomes (80-160 μg protein in buffer A) followed by addition of d,l-[3-^14 C]-HMG-CoA (0.33 mM, 2.0 dpm/picomole) and NADPH (3.0 mM). The 50 percent inhibitory concentration IC50) for each compound in Table 1 was calculated from the linear regression line of the percent decrease (from control) in enzyme activity vs. log concentration of inhibitor, determined using at least 4 dilutions of each test compound assayed in duplicate.

[2] = tested on: Isolated Hepatocyte Cholesterol Biosynthesis; test: Test B: Isolated Hepatocyte Cholesterol Biosynthesis Assay; type: cell-based, male Wistar rats; details: freshly isolated rat hepatocytes, 10 min preincubation, 60 minutes at 37°, pH 7.35, incorporation of 3H or 14C into sterols, read-out: IC50, Inhibition of Isolated Hepatocyte Cholesterol Biosynthesis
Procedure: Test B: Isolated Hepatocyte Cholesterol Biosynthesis Assay:
Intact parenchymal hepatocytes were isolated from male Wistar rats (180-280 g) fed cholestyramine containing or normal diet, using the collagenase perfusion method essentially as described by Seglen, in Methods in Cell Biology (D. Prescott, ed.) Vol. 13, pp. 29-83, Academic Press, New York (1976). Cell preparations were used only when viability (trypan blue exclusion) exceeded 90%. Cholesterol biosynthesis was determined as the incorporation by hepatocytes of ^3 H from [^3 H]-water into total (cellular plus medium) 3β-hydroxy sterols as per Ingebritsen, et al., J. Biol. Chem., 254, 9986-9989 (1979). Hepatocyte sterols and lipids were isolated by a modification of the methods described by Kates, in Techniques in Lipidology. (M. Kates, ed.), pp. 349, 360-363, North Holland Publ. Co., Amsterdam, 1972. To isolate sterols, cells are extracted with methanol:chloroform:water (2:1:0.8), the chloroform phase is separated and extracted with benzene to remove traces of water, then dried under nitrogen. The residue is saponified at 75° C. with 0.30 N NaOH in methanol:water (9:1). […] The ^3 H-labelled sterols are quantified by liquid scintillation and corrected for counting efficiency. […]

| SMILES | IC50 [1] [nM] | IC50 [2] [nM] |
| --- | --- | --- |
| CC(C)C(C=C[C@@H](O)C[C@@H](O)CC(=O)O)=C(c1ccc(F)cc1)c1ccc(F)cc1 (relative stereo) [Example 8, Erythro-9,9-bis(4-fluorophenyl)-3,5-dihydroxy-8-(1-methylethyl)-6,8-nonadienoic acid sodium salt] | 265 | 27 |
| CC(C)(C)C(C=C[C@@H](O)C[C@@H](O)CC(=O)O)=C(c1ccc(F)cc1)c1ccc(F)cc1 (relative stereo) [Example 42, Erythro-9,9-bis(4-fluorophenyl)-3,5-dihydroxy-8-(1,1-dimethylethyl)-6,8-nonadienoic acid sodium salt] | 500 | – |
| O=C(O)C[C@H](O)C[C@H](O)C=CC(=C(c1ccc(F)cc1)c1ccc(F)cc1)C(F)(F)F (relative stereo) [Example 73, Erythro9,9-bis(4-fluorophenyl)-3,5-dihydroxy-8-trifluoromethyl-6,8-nonadienoic acid sodium salt] | 1580 | – |
| CC[C@H](C)C(=O)O[C@H]1C[C@@H](C)C=C2C=C[C@H](C)[C@H](CC[C@@H]3C[C@@H](O)CC(=O)O3)[C@H]21 [Mevinolin (Lovastatin), reference compound] | – | 46 ± 26 |

Further lines, with some results ahead:

| IC50 [1] [nM] | SMILES | IC50 [2] [nM] |
| --- | --- | --- |
| 450 | O=C(O)C[C@H](O)C[C@H](O)C=CC(=C(c1ccc(F)cc1)c1ccc(F)cc1)C1CC1 (relative stereo) [Example 51, Erythro-8-cyclopropyl-9,9-bis(4-fluorophenyl)-3,5-dihydroxy-6,8-nonadienoicacid sodium salt] | – |
| 410 | CCC(C=C[C@@H](O)C[C@@H](O)CC(=O)O)=C(c1ccc(F)cc1)c1ccc(F)cc1 (relative stereo) [Example 59, Erythro-8-ethyl-9,9-bis(4-fluorophenyl)-3,5-dihydroxy-6,8-non adienoate sodium salt] | – |
